In US8722849B2, “Polypeptides” (Novo Nordisk A/S, priority 2011, dated 2014):
≈ marks a conversion by molar mass, not a printed value. Read-outs that look alike come from different tables or passages of the source. Starred links: 1 amine or outer side, 2 acyl side, 3 side chain; linkers in the order of their positions; H or OH if unused. Positions of bridges follow the written chain, without caps; N, C: chain ends. Residues, ends and D or L forms follow the SMILES beside them. Groups on a side chain read outwards from the residue. *: point of attachment. C20 diacid = O=C(O)CCCCCCCCCCCCCCCCCCC(=O)*; C18 diacid = O=C(O)CCCCCCCCCCCCCCCCC(=O)*; γGlu = O=C(O)[C@H](CCC(=O)[*:2])N[*:1]

Experiments:
[1] = Assay (III) ThT fibrillation assay for physical stability; format: physicochemical; conditions: ThT fibrillation assay
Method in brief: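 Freshly prepared formulations, pH-adjusted, with 1 μM ThT; four or eight replicates incubated at 37 °C under 960 rpm orbital shaking. Fluorescence (ex 444/em 485 nm) read every 20 min; […]. Peptide concentration measured by RP-HPLC before and after the run.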

[2] = biological target: T1, human amylin receptor (amylin 3(a) receptor: human calcitonin receptor + RAMP-3) (Homo sapiens, UniProt O60896+P30988); experiment: Assay (II)a functional CRE-luciferase assay, human amylin receptor; format: cell-based
T1 construct: expressed in transfected cells; host or cells: BHK570
T1 sequence (P30988 25-474): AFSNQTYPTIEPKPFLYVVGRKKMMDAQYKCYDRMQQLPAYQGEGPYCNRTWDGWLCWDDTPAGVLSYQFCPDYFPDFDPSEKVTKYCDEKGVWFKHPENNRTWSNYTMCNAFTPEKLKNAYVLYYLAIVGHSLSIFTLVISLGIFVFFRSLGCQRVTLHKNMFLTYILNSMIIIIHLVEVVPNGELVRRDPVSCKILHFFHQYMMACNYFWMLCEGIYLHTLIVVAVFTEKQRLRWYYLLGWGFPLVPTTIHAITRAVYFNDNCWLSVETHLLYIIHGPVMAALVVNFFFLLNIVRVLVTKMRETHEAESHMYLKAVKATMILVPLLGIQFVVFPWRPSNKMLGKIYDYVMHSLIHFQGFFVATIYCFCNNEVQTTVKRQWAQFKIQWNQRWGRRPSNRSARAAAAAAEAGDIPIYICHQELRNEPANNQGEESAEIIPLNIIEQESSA
T1 sequence (O60896 24-148 partner): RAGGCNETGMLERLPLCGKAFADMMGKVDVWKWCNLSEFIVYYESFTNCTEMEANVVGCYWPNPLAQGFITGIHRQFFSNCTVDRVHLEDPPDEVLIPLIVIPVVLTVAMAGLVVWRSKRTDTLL

[3] = biological target: T2, human calcitonin receptor (Homo sapiens, UniProt P30988); experiment: Assay (II)a functional CRE-luciferase assay, human calcitonin receptor; format: cell-based
T2 construct: expressed in transfected cells; host or cells: BHK570
T2 sequence (P30988 25-474): T1 sequence (P30988 25-474)

[4] = Assay (IV) determination of solubility; format: physicochemical
Method in brief: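 Solubility is measured across pH 3.0–8.0 by mixing a ~500 nmol/ml aqueous polypeptide stock 1:1 with 100 mM glycylglycine or bistrispropane buffers. Samples stand 18 hours at room temperature, then are centrifuged and the soluble concentration is determined by HPLC.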

[5] = Table 2, BHK amylin 3(a)-receptor/CRE-luc cells
[6] = Table 7, human calcitonin (CTa) receptor
[7] = bistrispropane buffer, pH 6, pH 6.0, read-out: Solubility pH 6.0
[8] = bistrispropane buffer, pH 6.5, pH 6.5, read-out: Solubility pH 6.5
[9] = bistrispropane buffer, pH 7, pH 7.0, 18 hours at room temperature, Table 3, read-out: Solubility pH 7.0
[10] = bistrispropane buffer, pH 7, pH 7.0, read-out: Solubility pH 7.0
[11] = bistrispropane buffer, pH 7.5, pH 7.5, read-out: Solubility pH 7.5
[12] = bistrispropane buffer, pH 8, pH 8.0, read-out: Solubility pH 8.0
[13] = glycylglycine buffer, pH 3, pH 3.0, read-out: Solubility pH 3.0
[14] = glycylglycine buffer, pH 4, pH 4.0, 18 hours at room temperature, Table 2, read-out: Solubility pH 4.0
[15] = glycylglycine buffer, pH 4, pH 4.0, read-out: Solubility pH 4.0
[16] = glycylglycine buffer, pH 5, pH 5.0, read-out: Solubility pH 5.0

ThT pH 4.0 lag time (h) [1] [h]	EC50 [2, 5] [pM]	EC50 [3, 6] [pM]	solubility at 18 h [4, 7] [µM]	solubility at 18 h [4, 8] [µM]	solubility at 18 h [4, 9] [µM]	solubility at 18 h [4, 10] [µM]	solubility at 18 h [4, 11] [µM]	solubility at 18 h [4, 12] [µM]	solubility at 18 h [4, 13] [µM]	solubility at 18 h [4, 14] [µM]	solubility at 18 h [4, 15] [µM]	solubility at 18 h [4, 16] [µM]	ThT pH 4.0 lag time [1] [h]	EC50 ([2]; Table 11) [pM]	EC50 ([3]; Table 11, read-out: CTa receptor human EC50) [pM]	SMILES
15.3	52	49	> 200	> 200	> 200	> 200	> 200	> 200	> 200	> 200	> 200	> 200				CC[C@H](C)[C@H](NC(=O)[C@@H]1CCCN1C(=O)CNC(=O)[C@H](Cc1ccccc1)NC(=O)[C@H](CC(N)=O)NC(=O)[C@H](CC(N)=O)NC(=O)[C@H](CO)NC(=O)[C@H](CO)NC(=O)[C@H](Cc1c[nH]cn1)NC(=O)[C@H](Cc1c[nH]cn1)NC(=O)[C@H](CC(C)C)NC(=O)[C@H](Cc1ccccc1)NC(=O)[C@H](CCC(=O)O)NC(=O)[C@H](C)NC(=O)[C@H](CC(C)C)NC(=O)[C@H](CCCNC(=N)N)NC(=O)[C@H](CCC(N)=O)NC(=O)[C@@H](NC(=O)[C@H](C)NC(=O)[C@@H]1CSSC[C@H](NC(=O)[C@H](Cc2c[nH]cn2)NC(=O)CNC(=O)CC[C@H](NC(=O)CCCCCCCCCCCCCCCCCCC(=O)O)C(=O)O)C(=O)N[C@@H](CC(N)=O)C(=O)N[C@@H]([C@@H](C)O)C(=O)N[C@@H](C)C(=O)N[C@@H]([C@@H](C)O)C(=O)N1)[C@@H](C)O)C(=O)N[C@@H](CC(C)C)C(=O)N1CCC[C@H]1C(=O)N1CCC[C@H]1C(=O)N[C@H](C(=O)N[C@@H](CC(N)=O)C(=O)N[C@H](C(=O)NCC(=O)N[C@@H](CO)C(=O)N[C@@H](CC(N)=O)C(=O)N[C@H](C(=O)N1CCC[C@H]1C(N)=O)[C@@H](C)O)C(C)C)[C@@H](C)O [Example 92, N-alpha-[(S)-4-Carboxy-4-(19-carboxynonadecanoylamino)butyryl]-Gly-[His1,Glu14,His17,Pro37]-pramlintide] ({C20 diacid-γGlu}-GHCNTATCATQRLAEFLHHSSNNFGPILPPTNVGSNTP-NH2; disulfide 3-8 (inferred); C-terminus assumed)
11.3	120	286	> 200	> 200	138 (≈ 614 µg/mL)	138 (≈ 614 µg/mL)	> 200	> 200	> 200	> 200	> 200	> 200				CC[C@H](C)[C@H](NC(=O)[C@@H]1CCCN1C(=O)CNC(=O)[C@H](Cc1ccccc1)NC(=O)[C@H](CC(N)=O)NC(=O)[C@H](CC(N)=O)NC(=O)[C@H](CO)NC(=O)[C@H](CO)NC(=O)[C@H](Cc1c[nH]cn1)NC(=O)[C@H](Cc1c[nH]cn1)NC(=O)[C@H](CC(C)C)NC(=O)[C@H](Cc1ccccc1)NC(=O)[C@H](CCC(=O)O)NC(=O)[C@H](C)NC(=O)[C@H](CC(C)C)NC(=O)[C@H](CCCNC(=N)N)NC(=O)[C@H](CCC(N)=O)NC(=O)[C@@H](NC(=O)[C@H](C)NC(=O)[C@@H]1CSSC[C@H](NC(=O)[C@@H](N)CCCCNC(=O)CC[C@H](NC(=O)CCCCCCCCCCCCCCCCC(=O)O)C(=O)O)C(=O)N[C@@H](CC(N)=O)C(=O)N[C@@H]([C@@H](C)O)C(=O)N[C@@H](C)C(=O)N[C@@H]([C@@H](C)O)C(=O)N1)[C@@H](C)O)C(=O)N[C@@H](CC(C)C)C(=O)N1CCC[C@H]1C(=O)N1CCC[C@H]1C(=O)N[C@H](C(=O)N[C@@H](CC(N)=O)C(=O)N[C@H](C(=O)NCC(=O)N[C@@H](CO)C(=O)N[C@@H](Cc1c[nH]cn1)C(=O)N[C@H](C(=O)N[C@@H](Cc1ccc(O)cc1)C(N)=O)[C@@H](C)O)C(C)C)[C@@H](C)O [Example 94, N-epsilon1-[(S)-4-Carboxy-4-(17-carboxyheptadecanoylamino)butyryl]-[Glu14,His17,His35]-pramlintide] (H-K([γGlu-C18 diacid])CNTATCATQRLAEFLHHSSNNFGPILPPTNVGSHTY-NH2; disulfide 2-7 (inferred); N-terminus assumed)
>45	82	175	> 200	16 (≈ 72.1 µg/mL)		2 (≈ 9.01 µg/mL)	11 (≈ 49.6 µg/mL)	51 (≈ 230 µg/mL)	> 200	> 200	> 200	> 200	>45			CC[C@H](C)[C@H](NC(=O)[C@@H]1CCCN1C(=O)CNC(=O)[C@H](Cc1ccccc1)NC(=O)[C@H](CC(N)=O)NC(=O)[C@H](CC(N)=O)NC(=O)[C@H](CO)NC(=O)[C@H](CO)NC(=O)[C@H](Cc1c[nH]cn1)NC(=O)[C@H](Cc1c[nH]cn1)NC(=O)[C@H](CC(C)C)NC(=O)[C@H](Cc1ccccc1)NC(=O)[C@H](CCC(=O)O)NC(=O)[C@H](C)NC(=O)[C@H](CC(C)C)NC(=O)[C@H](CCCNC(=N)N)NC(=O)[C@H](CCC(N)=O)NC(=O)[C@@H](NC(=O)[C@H](C)NC(=O)[C@@H]1CSSC[C@H](NC(=O)[C@H](CCCNC(=N)N)NC(=O)CC[C@H](NC(=O)CCCCCCCCCCCCCCCCCCC(=O)O)C(=O)O)C(=O)N[C@@H](CC(N)=O)C(=O)N[C@@H]([C@@H](C)O)C(=O)N[C@@H](C)C(=O)N[C@@H]([C@@H](C)O)C(=O)N1)[C@@H](C)O)C(=O)N[C@@H](CC(C)C)C(=O)N1CCC[C@H]1C(=O)N1CCC[C@H]1C(=O)N[C@H](C(=O)N[C@@H](CC(N)=O)C(=O)N[C@H](C(=O)NCC(=O)N[C@@H](CO)C(=O)N[C@@H](Cc1c[nH]cn1)C(=O)N[C@H](C(=O)N[C@@H](Cc1ccc(O)cc1)C(N)=O)[C@@H](C)O)C(C)C)[C@@H](C)O [Example 95, N-alpha-[(S)-4-Carboxy-4-(19-carboxynonadecanoylamino)butyryl]-[Arg1,Glu14,His17,His35]-pramlintide] ({C20 diacid-γGlu}-RCNTATCATQRLAEFLHHSSNNFGPILPPTNVGSHTY-NH2; disulfide 2-7 (inferred))
1.7			> 200	> 200		> 200	> 200	> 200	> 200		> 200	> 200		34	38.5	CC[C@H](C)[C@H](NC(=O)[C@@H]1CCCN1C(=O)CNC(=O)[C@H](Cc1ccccc1)NC(=O)[C@H](CC(N)=O)NC(=O)[C@H](CC(N)=O)NC(=O)[C@H](CO)NC(=O)[C@H](CO)NC(=O)[C@H](Cc1c[nH]cn1)NC(=O)[C@@H](NC(=O)[C@H](CC(C)C)NC(=O)[C@H](Cc1ccccc1)NC(=O)[C@H](CC(N)=O)NC(=O)[C@H](C)NC(=O)[C@H](CC(C)C)NC(=O)[C@H](CCCNC(=N)N)NC(=O)[C@H](CCC(N)=O)NC(=O)[C@@H](NC(=O)[C@H](C)NC(=O)[C@@H]1CSSC[C@H](NC(=O)[C@H](CCCNC(=N)N)NC(=O)CC[C@H](NC(=O)CCCCCCCCCCCCCCCCCCC(=O)O)C(=O)O)C(=O)N[C@@H](CC(N)=O)C(=O)N[C@@H]([C@@H](C)O)C(=O)N[C@@H](C)C(=O)N[C@@H]([C@@H](C)O)C(=O)N1)[C@@H](C)O)C(C)C)C(=O)N[C@@H](CC(C)C)C(=O)N1CCC[C@H]1C(=O)N1CCC[C@H]1C(=O)N[C@H](C(=O)N[C@@H](CC(N)=O)C(=O)N[C@H](C(=O)NCC(=O)N[C@@H](CO)C(=O)N[C@@H](CC(N)=O)C(=O)N[C@H](C(=O)N1CCC[C@H]1C(N)=O)[C@@H](C)O)C(C)C)[C@@H](C)O [Example 97] ({C20 diacid-γGlu}-RCNTATCATQRLANFLVHSSNNFGPILPPTNVGSNTP-NH2; disulfide 2-7 (inferred); C-terminus assumed)
